Results published in PubChem BioAssay AID504864 (NMMLSC, 2011).
Activity calls are given as the source filed them.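 How the source made its calls: active means normalized viability below 40% relative to DMSO and staurosporine controls, called cytotoxic; inactive means the rest.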

Tested on: ConA-stimulated mouse T cells viability, FDA flow cytometry, 24 h
Experiment: viability of concanavalin A-activated mouse T cells – cell-based, concanavalin A stimulation, cytotoxicity control for T cell immune modulator project (AID 504864)
Details: at 20 µM; hits give low values

Q: How did the viability turn out when `COc1ccc([N+](=O)[O-])cc1NC(=O)c1ccc(N(Cc2ccccc2C)S(C)(=O)=O)cc1` was run?
A: 90.9% (inactive)

Q: With `O=C(CS(=O)(=O)Cc1ccccc1)N1CCc2ccccc21` as the molecule, how does the viability read?
A: 106% (inactive)

Q: Which viability does the source give for `O=C(NNS(=O)(=O)c1ccc2ccccc2c1)c1cccs1` here?
A: 100% (inactive)

Q: For `Cc1ccc(S(=O)(=O)N2CCN(S(=O)(=O)N(C)C)CC2)c(C)c1`, which viability is on record?
A: 84.8% (inactive)

Q: Which viability does the source give for `CC(=O)c1ccc(-c2csc(N3CCC(C(N)=O)CC3)n2)cc1` here?
A: 91.6% (inactive)

Q: Which viability does the source give for `COc1ccc(N2CC(C(=O)NC(C)C(=O)NCc3ccccc3OC)CC2=O)cc1` (stereo not drawn) here?
A: 88.2% (inactive)

Q: Which viability does the source give for `Cc1ccc(N2CC(C(=O)NC3=NCCS3)CC2=O)cc1` (stereo not drawn) here?
A: 93.6% (inactive)

Q: For `COc1ccc(C(O)c2coc3ccc(O)c(CN(C)C)c23)cc1` (stereo not drawn), which viability is on record?
A: 88% (inactive)

Q: How did the viability turn out when `COc1ccc(NC(=O)CSCC(=O)Nc2cccc(S(=O)(=O)N3CCCCCC3)c2)cc1` was run?
A: 86.6% (inactive)

Q: `Cc1cccc(NC(=O)C2CCN(S(=O)(=O)c3c(C)[nH]c(=O)[nH]c3=O)CC2)c1` was tested. Which viability did it give?
A: 96% (inactive)

Q: For `COc1ccc(CNC(=O)c2cccnc2SC)cc1OC`, which viability is on record?
A: 75.5% (inactive)

Q: For `CN(C)S(=O)(=O)c1cccc(-n2sc3ccccc3c2=O)c1`, which viability is on record?
A: 12.1%

Q: With `COc1ccc(C2=Nc3cc(C)ccc3OC2)cc1` as the molecule, how does the viability read?
A: 94.5% (inactive)

Q: `CCC1(C)NC(=O)N(CC(=O)N2N=C(c3ccccc3)CC2c2ccc(OC)cc2)C1=O` (stereo not drawn) was tested. Which viability did it give?
A: 93.6% (inactive)

Q: How did the viability turn out when `CN(C)S(=O)(=O)c1ccc(C(=O)NCCc2ccco2)cc1` was run?
A: 91.8% (inactive)

Q: With `CC(Sc1nc2ccccc2[nH]1)C(=O)NC1CCCCC1C` (stereo not drawn) as the molecule, how does the viability read?
A: 101% (inactive)

Q: Which viability does the source give for `O=C(CC1=NCCNC(c2ccccc2)C1)c1ccccc1O` (stereo not drawn) here?
A: 75% (inactive)

Q: With `CCOc1ccc(-c2nc(N)ncc2-c2ccccc2)c(O)c1` as the molecule, how does the viability read?
A: 83.1% (inactive)

Q: How did the viability turn out when `Cc1cc(Cl)c(OCCCSc2nc(C)cc(=O)[nH]2)c(Br)c1` was run?
A: 103% (inactive)

Q: Which viability does the source give for `CCCc1nnc(NC(=O)c2ccc(S(=O)(=O)N(C)c3ccccc3OC)cc2)s1` here?
A: 89.7% (inactive)

Q: How did the viability turn out when `Cc1ccc(Cn2c([N+](=O)[O-])cnc2C)cc1` was run?
A: 110% (inactive)

Q: For `Cc1ccc(NC(=O)COC(=O)CCc2c[nH]c3ccccc23)c(C)c1`, which viability is on record?
A: 97.2% (inactive)

Q: `COc1ccccc1NS(=O)(=O)c1cc(NC(=O)CNC(=O)c2cc(C)cc(C)c2)ccc1C` was tested. Which viability did it give?
A: 111% (inactive)

Q: With `O=C(CCC(=O)N1CCOCC1)NCc1cccc(C(F)(F)F)c1` as the molecule, how does the viability read?
A: 98% (inactive)

Q: With `CCN(CC)CCNC(=O)CCCNC(=O)Cn1cnc2sc(C)c(C)c2c1=O` as the molecule, how does the viability read?
A: 98.7% (inactive)

Q: For `Cn1c(CNC(=O)CNC(=O)c2ccc(F)cc2)cc(=O)n(C)c1=O`, which viability is on record?
A: 96.3% (inactive)

Q: With `CC(C)(C)NC(=O)COc1ccc(CNCc2cccnc2)cc1` as the molecule, how does the viability read?
A: 91.1% (inactive)

Q: With `COc1cccc(NC(=O)Nc2ccc3nc(C)c(C)nc3c2)c1` as the molecule, how does the viability read?
A: 100% (inactive)

Q: With `O=C(NCc1cccnc1)C(=O)NCC(c1ccco1)N1CCN(c2ccccc2)CC1` (stereo not drawn) as the molecule, how does the viability read?
A: 101% (inactive)

Q: Which viability does the source give for `O=C(O)C1CCC(Cn2c(SCc3cc(=O)n4cc(Cl)ccc4n3)nc3ccsc3c2=O)CC1` (stereo not drawn) here?
A: 71.6% (inactive)

Q: With `CCCCOc1ccc(C(=O)NCC(=O)N2CCN(C(=O)c3ccco3)CC2)cc1` as the molecule, how does the viability read?
A: 85.5% (inactive)

Q: For `Cc1ccc(O)c(CCc2ccccc2)n1`, which viability is on record?
A: 96.7% (inactive)

Q: Which viability does the source give for `CCOc1ccc(CCNC(=O)CCS(=O)(=O)c2ccc(C)cc2)cc1OCC` here?
A: 85.5% (inactive)

Q: Which viability does the source give for `COc1ccc(NC(=O)CC2C(=O)N(Cc3ccccc3)C(=S)N2CCN2CCOCC2)cc1` (stereo not drawn) here?
A: 100% (inactive)

Q: For `CCCCn1nc(C(=O)N2CCN(S(=O)(=O)c3ccccc3)CC2)c2ccccc2c1=O`, which viability is on record?
A: 98.2% (inactive)

Q: Which viability does the source give for `CN(CC(=O)Nc1cc(S(=O)(=O)N2CCCC2)ccc1Cl)Cc1ccc2c(c1)OCO2` here?
A: 78.3% (inactive)

Q: How did the viability turn out when `CN1CCN(S(=O)(=O)c2ccc(C(=O)Nc3ccccc3)cc2)CC1` was run?
A: 93.5% (inactive)

Q: For `Cc1ccccc1C(=O)NCC(=O)N1CCN(C/C=C/c2ccccc2)CC1`, which viability is on record?
A: 100% (inactive)

Q: For `Cc1ccc(C(=O)NCCCN2CCOCC2)c(C)c1`, which viability is on record?
A: 96.3% (inactive)

Q: For `COc1ccc(S(=O)(=O)N2CCCCC2)cc1NC(=O)c1cnc(C)cn1`, which viability is on record?
A: 102% (inactive)

Q: How did the viability turn out when `O=C(c1ccc(N2C(=O)C3CC=C(Cl)CC3C2=O)cc1)N1CCCCC1` (stereo not drawn) was run?
A: 6.85%

Q: With `Cc1cc(C)n(C(=O)c2sc3cc(F)ccc3c2Cl)n1` as the molecule, how does the viability read?
A: 87.8% (inactive)

Q: For `Cc1ccccc1C(=O)N1CCC(C(=O)Nc2ccc(C)c(S(=O)(=O)N3CCCCC3)c2)CC1`, which viability is on record?
A: 82.2% (inactive)

Q: With `COc1ccc(S(=O)(=O)N2CCCC2C(=O)Nc2ccc(C(C)=O)cc2)cc1` (stereo not drawn) as the molecule, how does the viability read?
A: 94.9% (inactive)

Q: `Cc1ccc(S(=O)(=O)N2CCN(C(=O)CNC(=O)c3ccc(Cl)cc3)CC2)cc1` was tested. Which viability did it give?
A: 33.2%

Q: How did the viability turn out when `CCOC(=O)c1c(N2C(=O)CC(Sc3ccccc3C(=O)O)C2=O)sc2c1CCCC2` (stereo not drawn) was run?
A: 94.2% (inactive)

Q: With `O=C(OCCOc1cccc(Cl)c1)c1ccc(F)c(S(=O)(=O)N2CCOCC2)c1` as the molecule, how does the viability read?
A: 85% (inactive)

Q: Which viability does the source give for `O=C(NCCC1=CCCCC1)C(=O)NCC(c1ccco1)N1CCN(c2ccccc2F)CC1` (stereo not drawn) here?
A: 73.6% (inactive)

Q: `c1ccc(COc2ccc(OCCN3CCCCC3)cc2)cc1` was tested. Which viability did it give?
A: 112% (inactive)

Q: Which viability does the source give for `CCN(CC)S(=O)(=O)c1ccc(Cl)c(NC(=O)COC(=O)C2CCCCC2)c1` here?
A: 106% (inactive)

Q: Which viability does the source give for `Cc1ncc([N+](=O)[O-])n1Cc1cccc(F)c1` here?
A: 116% (inactive)

Q: Which viability does the source give for `NC(=O)C1CCN(c2nc(-c3cc4ccccc4o3)cs2)CC1` here?
A: 88.8% (inactive)

Q: How did the viability turn out when `CN1CCN(S(=O)(=O)c2cccc(C(=O)Nc3cc(C(F)(F)F)ccc3N3CCCCC3)c2)CC1` was run?
A: 56.9% (inactive)

Q: How did the viability turn out when `COCCCN1CCc2[nH]c(=S)[nH]c(=O)c2C1` was run?
A: 95.4% (inactive)

Q: With `Cc1cc(=O)oc2c3c(cc(OCC(=O)NCc4ccncc4)c12)OC(C)(C)CC3` as the molecule, how does the viability read?
A: 106% (inactive)

Q: How did the viability turn out when `CCOC(=O)c1ccc(NC(=O)CN2C(=O)NC3(CCCCCCC3)C2=O)cc1` was run?
A: 91.1% (inactive)

Q: Which viability does the source give for `O=C(Cn1cc(C(F)(F)F)cc(Cl)c1=O)NCCc1ccc(Cl)cc1Cl` here?
A: 102% (inactive)

Q: For `CCC(C(=O)Nc1ccccc1)c1ccccc1` (stereo not drawn), which viability is on record?
A: 104% (inactive)

Q: With `COCc1c(C(=O)Nc2cccc(S(=O)(=O)N3CCCCC3)c2)oc2ccccc12` as the molecule, how does the viability read?
A: 58.7% (inactive)

Q: For `O=C1CC(c2nc3ccccc3[nH]2)CN1Cc1ccccc1` (stereo not drawn), which viability is on record?
A: 110% (inactive)

Q: With `O=C(NCC1CCCCC1)c1ccc(Cl)c(S(=O)(=O)N2CCOCC2)c1` as the molecule, how does the viability read?
A: 78.3% (inactive)

Q: `CCOCC(=O)Nc1ccc(S(=O)(=O)N2CCC(c3nc4ccccc4[nH]3)CC2)cc1` was tested. Which viability did it give?
A: 94% (inactive)

Q: How did the viability turn out when `COc1ccc(Nc2ccccc2N)cc1` was run?
A: 21.9%

Q: `CCOC(=O)c1c(C=O)c2ccccc2n1CC` was tested. Which viability did it give?
A: 91.6% (inactive)

Q: How did the viability turn out when `CCOC(=O)c1ccc(S(=O)(=O)N2CCN(C3CCCC3)CC2)cc1` was run?
A: 90.7% (inactive)

Q: `COc1ccc(/C=C2\SC(=S)N(CCC(=O)N3CCOCC3)C2=O)cc1` was tested. Which viability did it give?
A: 78.4% (inactive)

Q: With `CCCNC(=O)c1nc2ncc(Br)cn2n1` as the molecule, how does the viability read?
A: 101% (inactive)

Q: `CCN(CC)C(=O)N1CCN(S(=O)(=O)c2ccc(C)cc2)CC1` was tested. Which viability did it give?
A: 105% (inactive)

Q: With `Cc1ccc(OCCOC(=O)c2cc(S(=O)(=O)N3CCCCC3)ccc2N2CCOCC2)cc1` as the molecule, how does the viability read?
A: 48.6% (inactive)

Q: For `COC(=O)c1ccccc1NC(=O)C1CCN(C(=O)c2cc(OC)cc(OC)c2)CC1`, which viability is on record?
A: 103% (inactive)

Q: With `CCOC(=O)C1CCCN(S(=O)(=O)c2ccc(F)c(C(=O)Nc3ccc(F)c(F)c3)c2)C1` (stereo not drawn) as the molecule, how does the viability read?
A: 74.5% (inactive)

Q: For `CC(=O)Nc1ccc(S(=O)(=O)NC2CCSc3ccccc32)cc1` (stereo not drawn), which viability is on record?
A: 98.5% (inactive)

Q: Which viability does the source give for `O=C(COC(=O)C12CC3CC(CC(Br)(C3)C1)C2)Nc1cccc(S(=O)(=O)N2CCOCC2)c1` here?
A: 96.9% (inactive)

Q: For `CC1CCCCC1NC(=O)COC(=O)c1ccc2ncsc2c1` (stereo not drawn), which viability is on record?
A: 90.9% (inactive)

Q: For `Cc1sc2ncnc(NCC(C)(C)N3CCOCC3)c2c1C`, which viability is on record?
A: 101% (inactive)

Q: `CCOC(=O)N1CCN(C(=O)c2ccc(CS(=O)Cc3ccc(C)cc3)o2)CC1` (stereo not drawn) was tested. Which viability did it give?
A: 98.2% (inactive)

Q: Which viability does the source give for `O=C(NCCN1CCN(c2ccccc2)CC1)c1cccc(Br)c1` here?
A: 86.2% (inactive)

Q: `COc1ccccc1CNC(=O)COc1ccc(C)cc1` was tested. Which viability did it give?
A: 98.7% (inactive)
